Results on 1 compound are retold here after BindingDB's records for doi:10.1021/np010194b (Kyungpook National University, 2002).

Where a SMILES comes first, the peptide text is derived from it. Bridges are numbered along the chain shown (N, C = ends).

The assay concerns the target Prolyl endopeptidase (Flavobacterium meningosepticum). Description: Inhibition of Flavobacterium meningosepticum PEP.

In turn, `CC[C@H](C)[C@H](NC(=O)[C@H](Cc1ccccc1)NC(=O)[C@@H](NC(=O)[C@H](Cc1cnc[nH]1)NC(=O)CNC(=O)CNC(=O)[C@H](Cc1ccccc1)NC(=O)[C@H](CC(C)C)NC(=O)[C@@H]1CC(=O)NCC(=O)N[C@@H](Cc2ccc(O)cc2)C(=O)N2CCC[C@H]2C(=O)N[C@@H](Cc2c[nH]c3ccccc23)C(=O)N[C@@H](Cc2c[nH]c3ccccc23)C(=O)N[C@@H](CC(=O)O)C(=O)N[C@@H](Cc2ccc(O)cc2)C(=O)N[C@@H](CCCNC(=N)N)C(=O)N1)[C@@H](C)O)C(=O)N[C@@H](CO)C(=O)N1CCC[C@H]1C(=O)O` [propeptin] (GYPWWDYRDLFGGHTFISP-OH; lactam N-9) gave an IC50 of 1100 nM.
